Entries after “also recorded” stand apart in the source; their conditions may differ.

The first assay relates to microorganisms (e.g., bacteria, yeasts, fungi). Nature of the assay: Targeting peptide binding to target microorganisms (Table 3). Conditions: microorganism the targeting peptide binds; binding in aqueous buffers varied by peptide solubility, preferably 1x PBS.
As to “1T-215 (VCFKDISVFLSPFRGQEVLFCGKAKHSLIYVIGT; Peptide with targeting and/or antimicrobial activity) [Peptide 1T-215]”, the “Target(s)” value was “S. sanguinis”.

“1T-13 (FRSPCINNNSLQPPGVYPAR; Peptide with targeting and/or antimicrobial activity) [Peptide 1T-13]”: the “Target(s)” value was “S. aureus; also recorded: S. epidermidis; also recorded: P. aeruginosa”.

For “1T-106 (DALRRSRSQGRRHR; Peptide with targeting and/or antimicrobial activity) [Peptide 1T-106]”, the “Target(s)” value is “S. gordonii; also recorded: S. mitis; also recorded: S. mutans; also recorded: S. oralis; also recorded: S. salivarious”.

Take “1T-289 (EPSADIYLSAKDTKT; Peptide with targeting and/or antimicrobial activity) [Peptide 1T-289]”: the “Target(s)” value was “F. nucleatum; also recorded: P. gingivalis; also recorded: S. gordonii; also recorded: S. mitis; also recorded: S. mutans; also recorded: S. oralis; also recorded: S. sanguinis”.

On to “1T-25 (VGLDVSVLVLFFGLQLLSVLLGAMIR; Peptide with targeting and/or antimicrobial activity) [Peptide 1T-25]”, for which the “Target(s)” value was “S. aureus; also recorded: S. epidermidis; also recorded: C. xerosis; also recorded: C. striatum; also recorded: P. aeruginosa”.

With “1T-61 (HATLLPAVREAISRQLLPALVPRG; Peptide with targeting and/or antimicrobial activity) [Peptide 1T-61]”, the “Target(s)” value is recorded as “P. aeruginosa”.

In the case of “1T-66 (DTDCLSRAYAQRIDELDKQYAGIDKPL; Peptide with targeting and/or antimicrobial activity) [Peptide 1T-66]”, the “Target(s)” value is “S. mutans; also recorded: S. aureus; also recorded: S. epidermidis; also recorded: C. jeikeium; also recorded: C. xerosis; also recorded: C. striatum; also recorded: P. aeruginosa”.

Take “1T-21 (YVEEAVRAALKKEARISTEDTPVNLPSFDC; Peptide with targeting and/or antimicrobial activity) [Peptide 1T-21]”: the “Target(s)” value is listed as “S. mutans; also recorded: P. aeruginosa”.

With “1T-29 (GSVIKKRRKRMSKKKHRKMLRRTRVQRRKLGK; Peptide with targeting and/or antimicrobial activity) [Peptide 1T-29]”, the “Target(s)” value is “S. epidermidis; also recorded: C. jeikeium; also recorded: C. xerosis; also recorded: C. striatum; also recorded: P. aeruginosa; also recorded: S. mutans; also recorded: S. aureus”.

Staying with this assay, now noted: microorganism(s) the targeting peptide binds; binding in aqueous buffers depending on peptide solubility, preferably 1x PBS.
Regarding “PF-295 (NIQVYESECGNYIFKKSDESFLIDIFDKNGTH; Peptide with targeting and/or antimicrobial activity)”, the “Target(s)” value is listed as “C. difficile”.

For the substance MLTSRKKRLKKIVEEQNKKDESI [PF-336], the “Target(s)” value was “S. mutans; also recorded: E. coli”.

On to “PF-197 (CNALLRRGHPPSAL; Peptide with targeting and/or antimicrobial activity)”, for which the “Target(s)” value is “S. epidermidis; also recorded: M. luteus; also recorded: C. albicans; also recorded: E. faecalis; also recorded: C. jejuni”.

With “PF-217 (DWEFTHKTIPQKK; Peptide with targeting and/or antimicrobial activity)”, the “Target(s)” value is recorded as “S. mutans”.

For “PF-246 (QPDEKAEFFDPSLDKVYRHPTFYHIPDGIEHM; Peptide with targeting and/or antimicrobial activity)”, the “Target(s)” value was “S. mutans”.

The same assay, now with this note: peptide binding in aqueous buffers varied by peptide solubility; preferably 1x PBS.
Regarding “PF-800 (WYYFDNNGYM; Peptide with targeting and/or antimicrobial activity)”, the “Target(s) (microorganisms bound by the targeting peptide)” value is “S. mutans”.

Turning to “PF-772 (TKESSS; Peptide with targeting and/or antimicrobial activity)”, the “Target(s) (microorganisms bound by the targeting peptide)” value was “S. epidermidis and C. albicans and MRSA and S. pneumoniae and C. jeikeium”.

As for “PF-711 (KTAGPTGTIYKTN; Peptide with targeting and/or antimicrobial activity)”, the “Target(s) (microorganisms bound by the targeting peptide)” value is listed as “S. mutans”.

For the origin of these results see US20110039762A1, “TARGETED ANTIMICROBIAL MOIETIES” (C3 JIAN, INC., priority 2009, published 2011).
